US20250320184A1 (SIRONAX LTD., priority 2022, published 2025)

target: T1, SARM1 (50-724) (Homo sapiens, UniProt Q6SZW1); test: biochemical
T1 sequence (Q6SZW1 50-724): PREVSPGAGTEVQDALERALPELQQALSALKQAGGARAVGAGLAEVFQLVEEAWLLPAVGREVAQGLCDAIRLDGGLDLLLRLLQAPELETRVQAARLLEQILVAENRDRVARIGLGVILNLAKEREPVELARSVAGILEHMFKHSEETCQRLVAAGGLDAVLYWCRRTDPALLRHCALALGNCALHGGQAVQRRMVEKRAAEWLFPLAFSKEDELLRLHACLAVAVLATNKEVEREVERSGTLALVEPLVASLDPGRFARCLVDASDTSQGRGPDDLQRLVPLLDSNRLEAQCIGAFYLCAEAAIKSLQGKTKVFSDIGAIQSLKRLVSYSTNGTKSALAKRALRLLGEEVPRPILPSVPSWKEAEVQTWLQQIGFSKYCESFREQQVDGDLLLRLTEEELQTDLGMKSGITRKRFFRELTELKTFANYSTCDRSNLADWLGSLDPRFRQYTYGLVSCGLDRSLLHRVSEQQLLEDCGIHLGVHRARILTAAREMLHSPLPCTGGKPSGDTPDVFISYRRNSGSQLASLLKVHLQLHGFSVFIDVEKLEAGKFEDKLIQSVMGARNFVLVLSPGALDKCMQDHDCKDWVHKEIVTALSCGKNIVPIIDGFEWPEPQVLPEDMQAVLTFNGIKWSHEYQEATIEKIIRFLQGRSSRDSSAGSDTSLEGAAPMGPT
Experimental: An enzymatic assay was performed in a 384-well plate using Dulbecco's phosphate-buffered saline (PBS) as the reaction buffer. […] The reaction was initiated by adding a mixture of 200 μM nicotinamide mononucleotide (NMN) as activator and 100 μM NAD^+ as substrate. After 1 h of incubation at room temperature, the reaction was terminated with 10 times volume of 70% acetonitrile, then centrifuged at 3800 rpm for 10 min.

| IC50 | Structure (SMILES) |
| --- | --- |
| < 100 nM | Cc1n[nH]c(=O)c2cc(NC(CCO)c3nc(Cl)c(Cl)s3)ccc12 (racemic) [Example 294] |
| < 100 nM | CC(Nc1cc(F)c2ncn(-c3ccn[nH]3)c(=O)c2c1)c1nc(Cl)c(Cl)s1 (racemic) [Example 356rac, 6-((1-(4,5-dichlorothiazol-2-yl)ethyl)amino)-8-fluoro-3-(1H-pyrazol-5-yl)quinazolin-4(3H)-one] |
| < 100 nM | CC(Nc1cc(F)c2ncn(-c3nc[nH]n3)c(=O)c2c1)c1nc(Cl)c(Cl)s1 (racemic) [Example 359, 6-((1-(4,5-dichlorothiazol-2-yl)ethyl)amino)-8-fluoro-3-(1H-1,2,4-triazol-3-yl)quinazolin-4(3H)-one] |
| < 100 nM | CC(Nc1cc(F)c2ncn(-c3nncs3)c(=O)c2c1)c1nc(Cl)c(Cl)s1 (racemic) [Example 369, 6-((1-(4,5-dichlorothiazol-2-yl)ethyl)amino)-8-fluoro-3-(1,3,4-thiadiazol-2-yl)quinazolin-4(3H)-one] |
| < 100 nM | CC(Nc1cc(F)c2ncn(-c3n[nH]cc3Cl)c(=O)c2c1)c1nc(Cl)c(Cl)s1 (racemic) [Example 370, 3-(4-chloro-1H-pyrazol-3-yl)-6-((1-(4,5-dichlorothiazol-2-yl)ethyl)amino)-8-fluoroquinazolin-4(3H)-one] |
| < 100 nM | Cc1cn[nH]c1-n1cnc2c(F)cc(NC(C)c3nc(Cl)c(Cl)s3)cc2c1=O (racemic) [Example 371, 6-((1-(4,5-dichlorothiazol-2-yl)ethyl)amino)-8-fluoro-3-(4-methyl-1H-pyrazol-5-yl)quinazolin-4(3H)-one] |
| < 100 nM | CC(Nc1cc(F)c2ncn(-c3cnn[nH]3)c(=O)c2c1)c1nc(Cl)c(Cl)s1 (racemic) [Example 372, 6-((1-(4,5-dichlorothiazol-2-yl)ethyl)amino)-8-fluoro-3-(1H-1,2,3-triazol-5-yl)quinazolin-4(3H)-one] |
| < 100 nM | CC(Nc1cc(F)c2ncn(-c3ncnn3C)c(=O)c2c1)c1nc(Cl)c(Cl)s1 (racemic) [Example 373, 6-((1-(4,5-dichlorothiazol-2-yl)ethyl)amino)-8-fluoro-3-(1-methyl-1H-1,2,4-triazol-5-yl)quinazolin-4(3H)-one] |

Further lines, the molecule ahead of its results:

| Structure (SMILES) | IC50 |
| --- | --- |
| Cc1n[nH]c(=O)c2cc(NC(C)c3c(Cl)ccc(F)c3Cl)ccc12 (racemic) [Example 222, 7-((1-(2,6-dichloro-3-fluorophenyl)ethyl)amino)-4-methylphthalazin-1(2H)-one] | < 100 nM |
| Cc1n[nH]c(=O)c2cc(NC(C)c3nc(Cl)c(Cl)s3)ccc12 (racemic) [Example 223, 7-((1-(4,5-dichlorothiazol-2-yl)ethyl)amino)-4-methylphthalazin-1(2H)-one] | < 100 nM |
| CC1(C)C(=O)Nc2cc(NC(CO)c3c(Cl)ccc(F)c3Cl)ccc21 (racemic) [Example 238, 6-((1-(2,6-dichloro-3-fluorophenyl)-2-hydroxyethyl)amino)-3,3-dimethylindolin-2-one] | < 100 nM |
| CC(Nc1ccc2c(c1)NC(=O)C21CC1)c1nc(Cl)c(Cl)s1 (racemic) [Example 244, 6′-((1-(4,5-dichlorothiazol-2-yl)ethyl)amino)spiro[cyclopropane-1,3′-indolin]-2′-one] | < 100 nM |
| Cc1n[nH]c(=O)c2cc(NC(CO)c3c(Cl)ccc(F)c3Cl)ccc12 (racemic) [Example 250, 7-[[1-(2,6-dichloro-3-fluoro-phenyl)-2-hydroxy-ethyl]amino]-4-methyl-2H-phthalazin-1-one] | < 100 nM |
| CCC(Nc1ccc2c(Cl)n[nH]c(=O)c2c1)c1nc(Cl)c(Cl)s1 (racemic) [Example 254, 4-chloro-7-[1-(4,5-dichlorothiazol-2-yl)propylamino]-2H-phthalazin-1-one] | < 100 nM |
| CC1(C)C(=O)Nc2cc(NC(CCO)c3nc(Cl)c(Cl)s3)ccc21 (racemic) [Example 292, 6-((1-(4,5-dichlorothiazol-2-yl)-3-hydroxypropyl)amino)-3,3-dimethylindolin-2-one] | < 100 nM |
